One data set in a line: Micronucleus Test. To be noted: 5 strain test with S9 activation (so in the source). The source says: (§1) Supplement jciinsight-9-173646-s083.xlsx, sheet "Supplemental Table S.2." | column: HOSU-53
For the next data set, the target named is T1, PPARγ (Homo sapiens, UniProt P37231).
T1 construct: purchased CEREP (Safety Screen 87 panel, as the earlier reading names the assay)
Put plainly: CEREP Safety Screen 87. Type of data set: binding. To be noted: 1 µM.
Source text: as §1

The nature of a further data set: In vivo p.o. PK in dog. To be noted: po.
Source text: as §1

The target of the next data set is HSA (Homo sapiens, UniProt P02768). The experiment in a line: Protein binding, HSA. The data set is classed as in vitro ADME. To be noted: 4% HSA.
Source text: as §1

For another data set, the target named is CYP 2C9 (Homo sapiens, UniProt P11712). Put plainly: CYP inhibition 2C9. The data set is classed as in vitro ADME.
Source text: as §1

Data set [1] concerns plasma dihydroorotate (DHO). The experiment in a line: Single-dose PD: plasma DHO accumulation in mice. The data set is classed as in vivo, male C57BL/6 mice. To be noted: HOSU-53 10 mpk PO, per mouse. Here is the method:
In the i.v. cohort, serial blood samples were collected in tubes containing K2EDTA at 0.083, 0.25, 0.5, 1, 2, 6, 24, 48, and 72 hours postdose while in the oral gavage cohort, serial blood samples were collected at 0.25, 0.5, 1, 2, 4, 8, 24, 48, and 72 hours postdose. Blood samples were processed to plasma to analyze for HOSU-53 and L-dihydroorotic acid (DHO) concentrations using liquid chromatography-tandem mass spectrometry. page 6: Plasma samples were obtained following appropriate dosing administration and saved in the -80°C freezer till the time of analysis. Analyses by LC-MS/MS followed sample extraction by protein precipitation and separation by Ultra Performance Liquid Chromatography (UPLC, Waters Corporation, MA, USA) using a C18 column, 1.7um, 2.1x50mm, Mobile Phase A: 5:95:0.1 (v:v:v) Acetonitrile:Water:Formic Acid, Mobile Phase B: 50:50:0.1 (v:v:v) Methanol:Acetonitrile:Formic Acid. MS/MS analyses were performed on an API-6500 (Absciex MA, USA) in positive mode using an electrospray source at 550°C. The internal standard was d4-AEA monitored at 352.2 and 66.0 m/z transitions and the target analyte, HOSU-53, was monitored at 416.5 and 331.1 m/z transitions. The assay was qualified between 10-5,000 ng/ml HOSU53 to be within ±20% for QCs above the LLOQ in this range and ±25% at the LLOQ. DHO concentration quantification in mouse plasma samples. Plasma samples were obtained following appropriate dosing administration and saved in the -80°C freezer till the time of analysis. Analyses by LC-MS/MS followed sample extraction by protein precipitation and separation by Ultra Performance Liquid Chromatography (UPLC, Waters Corporation, MA, USA) using a Phenomenex Aqua C18 100x4.6mm, 3uM, […], Mobile Phase A: 100:0.1 (v:v) Water:Formic Acid, Mobile Phase B: 100:0.1 (v:v) Methanol:Formic Acid. MS/MS analyses were performed on an API-4000 (Absciex MA, USA) in negative mode using an electrospray source at 550°C. The internal standard was labeled 13C14_L-Dihydroorotic Acid monitored at 161.3 and 117.1 m/z transitions and the target analyte, L-Dihydroorotic Acid (DHO), was monitored at 157.0 and 70.0 m/z transitions. The assay was qualified between 10.0-30,000 ng/ml DHO to be within ±20% for QCs above the LLOQ in this range and ±25% at the LLOQ.

The test system of another data set is THP-1 cells. The experiment in a line: E. coli phagocytosis assay. Type of data set: cell-based, human. To be noted: THP-1 treated 6 days. As to the method:
The THP-1 AML cell line was treated for 6 days, then washed and cocultured with pHrodo Deep Red E. coli BioParticles (P35360, Invitrogen) per the manufacturer’s protocol. Ten-minute pretreatment with 10 μM of cytochalasin D (actin polymerization inhibitor) was used as a negative control for phagocytosis. After 90 minutes of incubation with E. coli, cells were washed and run on the Cytek Aurora spectral flow cytometer.

Data set [2] concerns MOLM-13 disseminated CDX AML model. The experiment in a line: MOLM-13 CDX synergy with anti-CD47 immunotherapy. Type of data set: in vivo, NCG mice. To be noted: event 1 = death, 0 = censored. As to the method:
Male 8- to 12-week-old NCG mice were engrafted with […] cells via tail vein i.v. injection. Four days after engraftment (day 1 of treatment), mice (n = 10/arm) were randomized to receive p.o. qd and i.p. vehicle, daily oral 4 mg/kg or 10 mg/kg HOSU-53, 0.5 mg/animal i.p. anti-CD47 B6H12 (BioXCell) daily for 21 days, or HOSU-53 combination with anti-CD47. At day 80, half of the surviving mice in the combination cohorts were euthanized for bone marrow collection, leaving the remaining mice in the group on study without receiving any treatment. […] Figure 8, A and B, share the same vehicle and anti-CD47 cohorts.

For the next data set, the system named is MV4-11 AML target cells. The experiment in a line: Murine BMDM phagocytosis of MV4-11 cells (ADCP). Type of data set: cell-based, human. As to the method: Supplemental Figure S.9. A) Murine bone marrow derived macrophages (BMDM, effector cells) were generated from harvested bone marrow cells grown in the presence of 20ng/ml murine M-CSF for 7-8 days where media was refreshed on day 3. After BMDM generation, they were collected and stained […]
with CFDA-SE (green). […]
and stained with CTV (blue). Green BMDM cells were then co-cultured for 4 h with blue MV4-11 AML cells in the presence of 10 µg/ml isotype IgG1 or anti-CD47 antibody at 1:1 E:T ratio in an ultra-low binding tissue culture plate. Cells were then collected and analyzed using flow cytometry to quantify percentage of phagocytosed cells indicated by viable F4/80+CFDA+CTV+ cells (n=6). Adjusted FDR p-value *<0.05, ***≤0.0001, nonsignificant (ns) ≥0.05. B) Representative florescent microscopy images were taken using 20x objective to visualize antibody dependent cellular phagocytosis (ADCP). Prior to imaging, the wells were rinsed three time to remove MV4-11 target cells in suspension and allow the imaging of adherent effector cells (green BMDM) and residual blue MV4 -11 target cells. The outlined area in the red box is manually enlarged.
(1 picture or pasted object on this page, not shown here)

Another data set concerns plasma DHO. The experiment in a line: DHO plasma accumulation in MOLM-13 tumor-bearing mice. Type of data set: in vivo, NCG mice. To be noted: 10 mpk PO, female mice, per mouse, 10 mg/kg. Further details: unit not given here.
Another data set has as its target CYP 2D6 (Homo sapiens, UniProt P10635). The experiment in a line: CYP inhibition 2D6. The data set is classed as in vitro ADME.
Source text: as §1

“And” between values parts separate entries of the source, which are not always exact repeats. Equal entries are not always repeated. Bounds are passed on as bounds.

T1 sequence (P37231 whole entry): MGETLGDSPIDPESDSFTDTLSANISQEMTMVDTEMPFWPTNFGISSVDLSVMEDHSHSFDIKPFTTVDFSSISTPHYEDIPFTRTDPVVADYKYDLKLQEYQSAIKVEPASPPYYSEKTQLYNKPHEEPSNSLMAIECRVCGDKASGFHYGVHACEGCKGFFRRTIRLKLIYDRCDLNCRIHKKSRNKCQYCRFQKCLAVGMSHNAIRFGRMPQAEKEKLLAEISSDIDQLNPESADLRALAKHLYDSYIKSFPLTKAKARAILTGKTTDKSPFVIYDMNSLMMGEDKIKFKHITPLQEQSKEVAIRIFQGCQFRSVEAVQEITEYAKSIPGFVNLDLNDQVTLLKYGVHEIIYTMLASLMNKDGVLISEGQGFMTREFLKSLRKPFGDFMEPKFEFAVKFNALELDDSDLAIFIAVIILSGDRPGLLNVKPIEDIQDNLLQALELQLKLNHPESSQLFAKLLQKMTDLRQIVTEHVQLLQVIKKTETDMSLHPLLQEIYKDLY
Chain of CYP 2C9 (P11712 whole entry): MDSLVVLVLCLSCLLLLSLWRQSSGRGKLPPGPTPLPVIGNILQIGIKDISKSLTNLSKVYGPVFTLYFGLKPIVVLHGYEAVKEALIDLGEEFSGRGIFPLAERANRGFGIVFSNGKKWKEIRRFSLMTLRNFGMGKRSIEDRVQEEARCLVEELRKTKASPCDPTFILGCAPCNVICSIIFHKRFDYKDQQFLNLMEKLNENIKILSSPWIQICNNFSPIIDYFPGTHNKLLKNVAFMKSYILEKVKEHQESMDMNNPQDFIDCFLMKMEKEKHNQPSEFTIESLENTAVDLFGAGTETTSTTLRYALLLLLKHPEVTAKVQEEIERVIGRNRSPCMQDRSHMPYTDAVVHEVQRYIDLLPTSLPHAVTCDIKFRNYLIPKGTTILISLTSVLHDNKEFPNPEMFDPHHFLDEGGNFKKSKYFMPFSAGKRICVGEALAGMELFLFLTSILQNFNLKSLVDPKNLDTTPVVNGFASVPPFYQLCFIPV
Chain of HSA (P02768 25-609): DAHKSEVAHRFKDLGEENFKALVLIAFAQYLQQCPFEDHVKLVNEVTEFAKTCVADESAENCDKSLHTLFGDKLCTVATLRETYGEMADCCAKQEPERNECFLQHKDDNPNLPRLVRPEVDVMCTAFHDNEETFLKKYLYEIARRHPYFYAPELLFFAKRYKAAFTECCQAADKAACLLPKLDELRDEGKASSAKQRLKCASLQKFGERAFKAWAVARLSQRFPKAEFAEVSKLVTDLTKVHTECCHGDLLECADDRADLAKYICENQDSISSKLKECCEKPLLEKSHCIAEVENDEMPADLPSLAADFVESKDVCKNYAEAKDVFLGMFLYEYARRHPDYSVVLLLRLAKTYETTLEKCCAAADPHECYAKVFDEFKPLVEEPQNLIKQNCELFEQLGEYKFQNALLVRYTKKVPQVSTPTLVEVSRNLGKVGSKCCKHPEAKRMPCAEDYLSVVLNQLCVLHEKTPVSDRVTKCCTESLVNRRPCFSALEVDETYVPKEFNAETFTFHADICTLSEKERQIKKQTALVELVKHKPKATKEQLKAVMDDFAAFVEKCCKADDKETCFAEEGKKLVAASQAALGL
Chain of CYP 2D6 (P10635 whole entry): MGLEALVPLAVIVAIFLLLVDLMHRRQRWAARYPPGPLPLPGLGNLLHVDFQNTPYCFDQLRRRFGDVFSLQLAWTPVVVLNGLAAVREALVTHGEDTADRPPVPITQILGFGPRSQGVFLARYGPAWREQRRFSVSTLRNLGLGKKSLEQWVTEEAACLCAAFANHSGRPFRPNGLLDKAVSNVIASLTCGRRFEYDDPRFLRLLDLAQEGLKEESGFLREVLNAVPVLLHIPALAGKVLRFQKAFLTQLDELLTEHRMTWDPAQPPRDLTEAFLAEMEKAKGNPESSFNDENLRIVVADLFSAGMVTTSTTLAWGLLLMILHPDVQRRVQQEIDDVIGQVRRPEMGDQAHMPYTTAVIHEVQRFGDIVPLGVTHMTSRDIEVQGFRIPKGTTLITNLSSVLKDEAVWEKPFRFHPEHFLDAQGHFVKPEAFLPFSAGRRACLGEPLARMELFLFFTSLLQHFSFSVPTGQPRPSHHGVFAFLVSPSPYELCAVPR

In general, bioavailability refers to the share of a dose that reaches the circulation, judged against a reference dose that is usually intravenous. Broadly, the fraction unbound is free concentration divided by total concentration. A word on the IC50: it is the concentration that inhibits the measured activity by half. For `CCCCOc1cccc(-c2ccc(-c3cc(C(=O)O)c4cc(F)ccc4n3)cc2)c1` [HOSU-53], the “Micronucleus Test” value in “Micronucleus Test” was “Negative”. Besides, the “CEREP Safety Screen 87: PPARγ binding” value on PPARγ is “PPARγ (66% binding at 1 µM)”. In addition, the bioavailability in “In vivo p.o. PK in dog” (read-out: in vivo p.o. bioavailability (F)) was 47%. In addition, in the data set “In vivo p.o. PK in dog” (read-out: in vivo p.o. t1/2 (converted)), the half-life was 8.4 h. In addition, at HSA, the fraction unbound was less than 0.01. In addition, the IC50 worked out at 1.16 µM against CYP 2C9 and 30.1 µM against CYP 2D6. Besides, the DHO plasma concentration in data set [1] (0.5 h postdose) was 0.2422 µM; in [1] (1 h postdose, 10 mg/kg), 0.6072 µM and 0.4288 µM and 0.8412 µM; in data set [1] (2 h postdose, 10 mg/kg) it was 2.068 µM and 1.512 µM and 1.613 µM; in data set [1] (4 h postdose, 10 mg/kg) it was 2.783 µM and 2.701 µM and 3.7758 µM; in data set [1] (8 h postdose, 10 mg/kg), 6.325 µM and 4.807 µM and 6.894 µM; in data set [1] (24 h postdose, 10 mg/kg), 9.613 µM and 11.9535 µM and 9.74 µM. In addition, the DHO plasma concentration in data set [1] (48 h postdose, 10 mg/kg) was 4.364 µM and 4.453 µM and 2.467 µM; in data set [1] (72 h postdose, 10 mg/kg), 1.189 µM and 0.9613 µM and 1.132 µM. The “phagocytosis of E. coli” value in the data set on THP-1 cells is given as “enhanced ability to phagocytose E. coli”. For the same molecule, the “Days of Study (survival, per animal)” value in [2] (4 mg/kg HOSU-53) is 39 days and 46 days and 43 days and 42 days and 32 days and 40 days and 41 days; in [2] (10 mg/kg HOSU-53), 38 days and 50 days and 49 days and 51 days and 53 days and 52 days. In addition, the “CDFA+F4/80+CTV+” value in the data set on MV4-11 AML target cells (25nM HOSU53 + IgG1, six replicate columns, DMSO + IgG1 control 3.5-16.7) was 31.4 and 44.6 and 23.1 and 30.2 and 23.9 and 17.1. Also, in the data set with MV4-11 AML target cells (72-hour HOSU-53 (10nM) pretreatment of MV4-11, 10 µg/ml anti-CD47), the “phagocytosis of AML cells by murine BMDM in presence of B6H12 antibody” value is “greatly enhanced phagocytosis”. Besides, the “DHO AUC (Figure 3C y value)” value is 242.955 and 321.59 and 315.332 with plasma DHO (Day 1); 411.662 and 445.373 and 347.096 with plasma DHO (Day 14).
